# Measurements: ChEMBL document CHEMBL1128068, “Inhibitors of human collagenase: dipeptide mimetics with lactam and azalactam moieties at the position” (Bioorg Med Chem Lett, 1995)
# Biological target: T1, Interstitial collagenase (Homo sapiens, UniProt P03956)
# T1 sequence (P03956 whole entry): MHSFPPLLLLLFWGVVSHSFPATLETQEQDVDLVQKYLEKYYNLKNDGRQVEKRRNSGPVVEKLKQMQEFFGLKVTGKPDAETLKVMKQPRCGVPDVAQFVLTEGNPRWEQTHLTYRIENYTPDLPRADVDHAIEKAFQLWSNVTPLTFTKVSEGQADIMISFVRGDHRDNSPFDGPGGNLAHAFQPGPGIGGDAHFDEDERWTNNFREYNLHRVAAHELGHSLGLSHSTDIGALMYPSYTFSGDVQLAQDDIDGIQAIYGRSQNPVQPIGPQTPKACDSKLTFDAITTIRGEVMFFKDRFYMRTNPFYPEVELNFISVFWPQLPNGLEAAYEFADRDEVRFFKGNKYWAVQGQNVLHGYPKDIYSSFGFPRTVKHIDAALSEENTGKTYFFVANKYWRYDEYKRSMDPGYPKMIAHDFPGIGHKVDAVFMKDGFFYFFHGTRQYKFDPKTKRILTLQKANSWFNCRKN
# Assay: Inhibition of semi-purified human lung fibroblast collagenase
row,IC50 [µM],SMILES
1,0.46,CC[C@H](N[C@@H](CC(C)C)C(=O)NC1CCCCNCCCCCNC1=O)P(=O)(O)O (stereo partly specified)
2,0.227,CC[C@H](N[C@@H](CC(C)C)C(=O)NC1CCCNCCCCCCNC1=O)P(=O)(O)O (stereo partly specified)
3,0.307,CC[C@H](N[C@@H](CC(C)C)C(=O)NC1CCCCNCCCCCCNC1=O)P(=O)(O)O (stereo partly specified)
4,2.23,CC[C@H](N[C@@H](CC(C)C)C(=O)NC1CCCCNCCCNC1=O)P(=O)(O)O (stereo partly specified)
5,0.183,CCC(N[C@@H](CC(C)C)C(=O)NC1CCCCCCCCCCNC1=O)P(=O)(O)O (stereo partly specified)

# Continued, compound first:
row,SMILES,IC50 [µM]
1,CC[C@H](N[C@@H](CC(C)C)C(=O)NC1CCCCN(C)CCCCCNC1=O)P(=O)(O)O (stereo partly specified),0.51
2,CC(C)CC(CC(=O)NO)C(=O)NC1CCCCCCCCCCNC1=O (stereo unspecified),0.026
3,CC(C)C[C@@H](C(=O)NC1CCCCCCCCCCNC1=O)[C@@H](S)CC(=O)OC(C)C (stereo partly specified),0.051
4,CC(C)CC(C(=O)NC1CCCCNCCCCCNC1=O)[C@@H](S)CC(=O)OC(C)C (stereo partly specified),0.044
5,CC(C)CC(CC(=O)NO)C(=O)N[C@H]1CCCCNCCCCCNC1=O (stereo in doubt; 17a),0.012
6,CC(C)CC(CC(=O)NO)C(=O)N[C@H]1CCCCNCCCCCNC1=O (stereo in doubt; 17b),0.082
